# Laboratory results reported in publication PMC9607081 (Membranes, 2022).
# Substitutions are numbered along the chain they refer to. Where two headings read alike, the source gives them in different places.
# What was measured:
# [1] = target: T1, human GlyR α1 subunit P146 (CysL) substituted with Pip (Homo sapiens, UniProt P23415, P174X); assay: TEVC, oocytes, nonsense suppression, P146 Pip; assay type: cell-based; conditions: for EC50: n = 3
# T1 sequence (P23415 29-457 P174X): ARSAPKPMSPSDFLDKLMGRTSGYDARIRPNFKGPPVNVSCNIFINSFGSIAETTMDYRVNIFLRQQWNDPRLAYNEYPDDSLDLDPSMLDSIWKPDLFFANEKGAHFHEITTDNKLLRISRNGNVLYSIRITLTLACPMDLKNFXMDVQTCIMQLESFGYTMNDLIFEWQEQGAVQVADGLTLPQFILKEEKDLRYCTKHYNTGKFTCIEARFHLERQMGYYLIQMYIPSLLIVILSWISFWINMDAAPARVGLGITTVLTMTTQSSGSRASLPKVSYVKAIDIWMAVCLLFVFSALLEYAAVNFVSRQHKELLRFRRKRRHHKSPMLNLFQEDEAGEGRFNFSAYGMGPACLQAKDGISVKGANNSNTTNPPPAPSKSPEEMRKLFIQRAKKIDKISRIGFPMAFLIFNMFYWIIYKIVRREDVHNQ
# Protocol: (§1) The cDNA for the human GlyR α1 subunit was in pGEMHE (ThermoFischer Scientific, Bishops Stortford, UK). Site-directed mutagenesis was performed using QuikChange (Agilent Technologies, Milton Keynes, UK) to generate the appropriate codon. For non-canonical amino acid mutants and conventional mutants generated by nonsense suppression, the site of interest was mutated to the TAG stop codon. Receptor mRNA was then prepared by in vitro runoff transcription using the Ambion T7 mMessage mMachine kit (ThermoFischer Scientific, Bishops Stortford, UK). Noncanonical amino acids were ligated to tRNA as previously described.
# (§2) Stage V-VI oocytes of Xenopus laevis were harvested and injected with RNAs as described previously. For nonsense suppression experiments, each cell was injected with 50–100 ng each of receptor mRNA and tRNA charged with the appropriate Pro analogue ~48 h before recording. For wild type and conventional mutants, each cell received a single injection of 10–25 ng of receptor mRNA ~24 h before recording. Injection volumes were 50–100 nL per cell.
# (§3) As a negative control for suppression experiments at each site, unligated tRNA was co-injected with mRNA in the same manner as charged tRNA. […] Pro recovery (injecting tRNA charged with Pro to regenerate a wild type channel via nonsense suppression) was used alongside Pro analogues as a positive control.
# (§4) Two-electrode voltage clamping of Xenopus oocytes was performed using standard electrophysiological procedures as previously, using an OpusXpress system (Axon Instruments, Inc., Union City, CA, USA). All experiments were performed at 22–25 °C. […] The holding potential was −60 mV unless otherwise specified. […] Data were analysed using Prism (GraphPad Software Inc., San Diego, CA, USA), fitting concentration-response data to the four-parameter logistic equation. Statistical analysis was performed using ANOVA with a Dunnett’s multiple comparisons post test.
# [2] = target: T2, human GlyR α1 subunit P230A (Homo sapiens, UniProt P23415, P258A); assay: Two-electrode voltage clamp of Xenopus oocytes expressing P230A GlyR; assay type: cell-based; conditions: for nH (Hill coefficient): Table 1, n = 5; for EC50: Table 1, −60 mV
# T2 construct: expressed in transfected cells; host or cells: Xenopus laevis oocytes injected with receptor mRNA
# T2 sequence (P23415 29-457 P258A): T1 sequence (P23415 29-457 P174X) with X146P, P230A
# Protocol: (§5) Injection volumes were 50–100 nL per cell.
# (§6) All experiments were performed at 22–25 °C. […] The holding potential was −60 mV unless otherwise specified.
# [3] = target: T3, human GlyR α1 subunit P146 (CysL) substituted with CFP (Homo sapiens, UniProt P23415, P174X); assay: TEVC, oocytes, nonsense suppression, P146 CFP; assay type: cell-based
# T3 sequence (P23415 29-457 P174X): T1 sequence (P23415 29-457 P174X)
# Protocol: as §1, §2, §3, §4
# [4] = tested on: human GlyR α1 subunit P230 (M1) substituted with 3MeP; conditions: Table 2, P230 3MeP, n = 4
# Protocol: as §1, §2, §3, §4
# [5] = tested on: human GlyR α1 subunit P96 (loopA) substituted with 3MeP; conditions: Table 2, P96 3MeP, n = 4
# Protocol: as §1, §2, §3, §4
# [6] = target: human GlyR α1 subunit P96 (loopA) substituted with Pro (Homo sapiens, UniProt P23415); conditions: Table 2, n = 5
# Sequence of human GlyR α1 subunit P96 (loopA) substituted with Pro (P23415 29-457): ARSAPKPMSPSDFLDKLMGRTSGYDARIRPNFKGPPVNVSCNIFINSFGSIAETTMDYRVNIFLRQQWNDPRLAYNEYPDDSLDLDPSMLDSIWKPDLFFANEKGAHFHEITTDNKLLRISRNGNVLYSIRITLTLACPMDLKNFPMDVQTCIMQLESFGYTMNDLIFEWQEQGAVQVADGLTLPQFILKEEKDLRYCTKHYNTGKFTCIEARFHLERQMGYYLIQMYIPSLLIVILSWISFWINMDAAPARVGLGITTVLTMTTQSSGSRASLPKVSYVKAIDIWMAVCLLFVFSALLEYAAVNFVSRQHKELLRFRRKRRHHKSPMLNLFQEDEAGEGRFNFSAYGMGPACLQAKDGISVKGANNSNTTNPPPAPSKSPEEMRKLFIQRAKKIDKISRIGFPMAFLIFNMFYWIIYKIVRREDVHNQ
# Protocol: as §1, §2, §3, §4
# [7] = tested on: human GlyR α1 subunit P96 (loopA) substituted with TFP
# Protocol: as §1, §2, §3, §4
# [8] = tested on: human GlyR α1 subunit P96 (loopA) substituted with 2MeP; conditions: Table 2, P96 2MeP, n = 4
# Protocol: as §1, §2, §3, §4
# [9] = tested on: human GlyR α1 subunit P96 (loopA) substituted with Pip
# Protocol: as §1, §2, §3, §4
# [10] = tested on: human GlyR α1 subunit P30 (α1β1L) substituted with 3MeP; conditions: Table 2, P30 3MeP, n = 4
# Protocol: as §1, §2, §3, §4
# [11] = tested on: human GlyR α1 subunit P96 (loopA) substituted with CFP
# Protocol: as §1, §2, §3, §4
# [12] = target: T4, human GlyR α1 subunit P30A (Homo sapiens, UniProt P23415, P58A); assay: Two-electrode voltage clamp of Xenopus oocytes expressing P30A GlyR; assay type: cell-based; conditions: n = 5
# T4 construct: expressed in transfected cells; host or cells: Xenopus laevis oocytes injected with receptor mRNA
# T4 sequence (P23415 29-457 P58A): as the sequence (P23415 29-457) above, with P30A counted along it
# Protocol: as §5, §6
# [13] = Table 2, nonsense suppression, n = 4
compound,measurement,setting,value
"NCC(=O)O [Gly, glycine]",nH,"[1]; Table 2, n = 5",1.9 ± 0.7
same,nH,"[1]; Table 3, n = 3",2.7 ± 0.9
same,nH (Hill coefficient),[2],2.2 ± 0.4
same,nH,"[3]; Table 2, P146 CFP, n = 6",3.7 ± 0.6
same,nH,"[3]; Table 3, P146 CFP, n = 3",3.0 ± 0.5
same,nH,[4],1.1 ± 0.4
same,EC50,[4]; nonsense suppression,34 µM
same,pEC50,[4]; nonsense suppression,4.471 ± 0.08 M
same,nH,[5],3.0 ± 0.2
same,EC50,[5]; nonsense suppression,514 µM
same,pEC50,[5]; nonsense suppression,3.289 ± 0.02 M
same,nH,[6],2.7 ± 1.1
same,nH,"[7]; Table 2, n = 4",2.9 ± 0.7
same,EC50,[7]; [13],127 µM
same,pEC50,[7]; [13],3.898 ± 0.03 M
same,nH,[8],2.8 ± 0.5
same,EC50,[8]; nonsense suppression,254 µM
same,pEC50,[8]; nonsense suppression,3.596 ± 0.03 M
same,nH,"[9]; Table 2, n = 4",2.9 ± 0.3
same,EC50,[9]; [13],215 µM
same,pEC50,[9]; [13],3.667 ± 0.02 M
same,nH,[10],3.0 ± 2.7
same,EC50,[10]; nonsense suppression,8.9 µM
same,pEC50,[10]; nonsense suppression,5.046 ± 0.05 M
same,nH,"[11]; Table 2, n = 4",3.2 ± 0.7
same,EC50,[11]; [13],145 µM
same,pEC50,[11]; [13],3.840 ± 0.05 M
"NCCS(=O)(=O)O [Tau, taurine]",EC50,"[1]; EC50, Table 3, nonsense suppression",757 µM
same,nH,"[1]; Table 3, n = 3",1.8 ± 0.3
same,Emax,"[1]; Table 3, n = 3, read-out: % ImaxTau /ImaxGly",64 ± 7%
same,EC50,"[1]; pEC50, Table 3, nonsense suppression",757 µM
same,EC50,[12],1230 µM
same,ImaxTau/ImaxGly,[12],60 ± 5%
same,nH (Hill coefficient),[2],2.2 ± 0.4
same,EC50,"[2]; n = 5, read-out: EC50",1190 µM
same,EC50,"[2]; n = 5, read-out: pEC50 (converted)",1190 µM
same,% ImaxTau /ImaxGly,[2]; n = 5,20 ± 1 %
same,EC50,[3],579 µM
same,nH,"[3]; Table 3, P146 CFP, n = 3",2.1 ± 0.2
same,Emax,"[3]; Table 3, P146 CFP, n = 3, read-out: % ImaxTau /ImaxGly",71 ± 3%
